# Tests used:
# Assay in all cases: in vitro antibacterial evaluation, MIC by broth dilution
# Assay type in all cases: cell-based
# Enterococcus sp. = details: broth dilution, 18 hours at 35° C.
# In short: (§1)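 Read-out: the lowest concentration at which the test strain fails to grow. Serial dilutions (64-0.06 μg/mL) in Muller-Hinton II […], 5×10^5 CFU/mL inoculum, NCCLS M7-A2 procedure.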
# Escherichia coli = details: 18 hours at 35° C., strain ATCC 25922
# In short: as §1
# Streptococcus sp. = details: broth dilution, 18 hours at 35° C.
# In short: as §1
# Staphylococcus sp. = details: broth dilution, 18 hours at 35° C.
# In short: as §1
smiles,measurement,setting,value
"CC(c1ccccc1)C1NC(=O)CNC(=O)C(CO)NC(=O)C(C(O)C2CNC(=N)N2C2OC(CO)C(O)C(O)C2O)NC(=O)C(C(O)C2CNC(=N)N2)NC(=O)C(Cc2ccc(OC3OC(CO)C(OC4OC5COC(CC(C)(C)C)OC5C(O)C4O)C(O)C3O)cc2)NC1=O (stereo not drawn) [Example 110, Cyclo[glycyl-β-methylphenylalanyl-O-[4-O-[4,6-O-(3,3-dimethylbutylidene)hexopyranosyl]-hexopyranosyl]tyrosyl-3-(2-iminoimidazolidin-4-yl)seryl-3-(3-hexopyranosyl-2-iminoimidazolidin-4-yl)serylseryl]]",MIC Enterococcus avium (GC 4558),Enterococcus sp.; Enterococcus avium (GC 4558),4 µg/mL
same,MIC Enterococcus faecalis (ATCC 29212),Enterococcus sp.; Enterococcus faecalis (ATCC 29212),4 µg/mL
same,MIC Enterococcus faecalis (GC 2242),Enterococcus sp.; Enterococcus faecalis (GC 2242),2 µg/mL
same,MIC Enterococcus faecalis (GC 4552),Enterococcus sp.; Enterococcus faecalis (GC 4552),4 µg/mL
same,MIC Enterococcus faecalis (GC 4553),Enterococcus sp.; Enterococcus faecalis (GC 4553),4 µg/mL
same,MIC Enterococcus faecalis (GC 4554),Enterococcus sp.; Enterococcus faecalis (GC 4554),2 µg/mL
same,MIC Enterococcus faecium (GC 2243),Enterococcus sp.; Enterococcus faecium (GC 2243),4 µg/mL
same,MIC Enterococcus faecium (GC 4556),Enterococcus sp.; Enterococcus faecium (GC 4556),2 µg/mL
same,MIC Enterococcus faecium (GC 4557),Enterococcus sp.; Enterococcus faecium (GC 4557),2 µg/mL
same,MIC Enterococcus faecalis (ATCC 29212),Enterococcus sp.; strain ATCC 29212,4 µg/mL
same,MIC Enterococcus faecalis (GC 2242),Enterococcus sp.; strain GC 2242,2 µg/mL
same,MIC Enterococcus faecium (GC 2243),Enterococcus sp.; strain GC 2243,4 µg/mL
same,MIC Enterococcus faecalis (GC 4552),Enterococcus sp.; strain GC 4552,4 µg/mL
same,MIC Enterococcus faecalis (GC 4553),Enterococcus sp.; strain GC 4553,4 µg/mL
same,MIC Enterococcus faecalis (GC 4554),Enterococcus sp.; strain GC 4554,2 µg/mL
same,MIC Enterococcus faecium (GC 4556),Enterococcus sp.; strain GC 4556,2 µg/mL
same,MIC Enterococcus faecium (GC 4557),Enterococcus sp.; strain GC 4557,2 µg/mL
same,MIC Enterococcus avium (GC 4558),Enterococcus sp.; strain GC 4558,4 µg/mL
same,MIC Escherichia coli (ATCC 25922),Escherichia coli,64 µg/mL
same,MIC Streptococcus agalactiae (GC 4564),Streptococcus sp.; Streptococcus agalactiae (GC 4564),<0.5 µg/mL
same,MIC Streptococcus pneumoniae (GC 4565),Streptococcus sp.; Streptococcus pneumoniae (GC 4565),<0.5 µg/mL
same,MIC Streptococcus pyogenes (ID-3187),Streptococcus sp.; Streptococcus pyogenes (ID-3187),<0.5 µg/mL
same,MIC Streptococcus agalactiae (GC 4564),Streptococcus sp.; strain GC 4564,<0.5 µg/mL
same,MIC Streptococcus pneumoniae (GC 4565),Streptococcus sp.; strain GC 4565,<0.5 µg/mL
same,MIC Streptococcus pyogenes (ID-3187),Streptococcus sp.; strain ID-3187,<0.5 µg/mL
same,MIC Coagulase Negative Staphylococcus (GC 4547),Staphylococcus sp.,1 µg/mL
same,MIC Coagulase Negative Staphylococcus (GC 4548),Staphylococcus sp.,1 µg/mL
same,MIC Coagulase Negative Staphylococcus (GC 4549),Staphylococcus sp.,1 µg/mL
same,MIC Coagulase Negative Staphylococcus (GC 4551),Staphylococcus sp.,1 µg/mL
same,MIC Coagulase Negative Staphylococcus (ID-3941),Staphylococcus sp.,1 µg/mL
same,MIC Staphylococcus aureus (ATCC 29213),Staphylococcus sp.,1 µg/mL
same,MIC Staphylococcus aureus (GC 1131),Staphylococcus sp.,1 µg/mL
same,MIC Staphylococcus aureus (GC 4541),Staphylococcus sp.,1 µg/mL
same,MIC Staphylococcus aureus (GC 4542),Staphylococcus sp.,1 µg/mL
same,MIC Staphylococcus aureus (GC 4544),Staphylococcus sp.,2 µg/mL
same,MIC Staphylococcus aureus (GC 4545),Staphylococcus sp.,1 µg/mL
same,MIC Staphylococcus aureus-SMITH (GC 4543),Staphylococcus sp.,1 µg/mL
same,MIC Staphylococcus haemolyticus (GC 4546),Staphylococcus sp.,1 µg/mL
same,MIC Staphylococcus aureus (GC 1131),"Staphylococcus sp.; inoculum 5×10^5 CFU/mL, strain GC 1131",1 µg/mL
same,MIC Staphylococcus aureus (ATCC 29213),Staphylococcus sp.; strain ATCC 29213,1 µg/mL
same,MIC Staphylococcus aureus (GC 4541),Staphylococcus sp.; strain GC 4541,1 µg/mL
same,MIC Staphylococcus aureus (GC 4542),Staphylococcus sp.; strain GC 4542,1 µg/mL
same,MIC Staphylococcus aureus (GC 4544),Staphylococcus sp.; strain GC 4544,2 µg/mL
same,MIC Staphylococcus aureus (GC 4545),Staphylococcus sp.; strain GC 4545,1 µg/mL
same,MIC Staphylococcus haemolyticus (GC 4546),Staphylococcus sp.; strain GC 4546,1 µg/mL
same,MIC Coagulase Negative Staphylococcus (GC 4547),Staphylococcus sp.; strain GC 4547,1 µg/mL
same,MIC Coagulase Negative Staphylococcus (GC 4548),Staphylococcus sp.; strain GC 4548,1 µg/mL
same,MIC Coagulase Negative Staphylococcus (GC 4549),Staphylococcus sp.; strain GC 4549,1 µg/mL
same,MIC Coagulase Negative Staphylococcus (GC 4551),Staphylococcus sp.; strain GC 4551,1 µg/mL
same,MIC Coagulase Negative Staphylococcus (ID-3941),Staphylococcus sp.; strain ID-3941,1 µg/mL
same,MIC Staphylococcus aureus-SMITH (GC 4543),Staphylococcus sp.; strain SMITH GC 4543,1 µg/mL

# Reference: patent publication US6914045B2, “Glycopeptide antibiotics” (Wyeth Holdings Corporation, priority 2001, dated 2005)
